Key:
[1] = tested on: Bacillus subtilis; assay: Antibacterial well-diffusion method; format: cell-based; settings: 0.1 mL of compound in DMSO, 48 h, 27 °C
Description: (§1) The antimicrobial properties of compounds were determined against selected bacteria: Micrococcus luteus, Bacillus subtilis, Escherichia coli and Pseudomonas fluorescens which came from the collection of Pure Cultures of the Facility of Microbiology of the Department of Soil Science and Microbiology of the Poznan University of Life Sciences. The well-diffusion method was used to evaluate the antimicrobial properties of compounds. 6 mL each of liquidized broth medium was poured into sterile Petri dishes and allowed to solidify. After which, two sterile glass rings with a diameter of 0.5 cm were placed on the surface of each plate. Then 20 mL each of liquid broth medium containing suspensions of the tested bacterial strains at a density of 10^7 cells/cm3, obtained from 48-h cultures on broth […], was introduced. After the medium solidified, the glass rings were removed with a pencil, obtaining two wells on each plate. 0.1 mL of compound dissolved in pure dimethyl sulphoxide was introduced into one well, and 0.1 mL of pure dimethyl sulphoxide was introduced into the other well, which was as a control. Each compound was tested in four replicates. The plates were incubated for 48 h in a thermostat at 27 °C for M. luteus, B. subtilis and P. fluorescens cultures, and the E. coli culture at 37 °C. At the end of the incubation, the diameters of growth inhibition of the tested strains were measured using calipers.

[2] = tested on: Escherichia coli; assay: Antibacterial well-diffusion method; format: cell-based; settings: 0.1 mL of compound in DMSO, 48 h, 37 °C
Description: as §1

[3] = tested on: Micrococcus luteus; assay: Antibacterial well-diffusion method; format: cell-based; settings: Micrococus luteus, 0.1 mL of compound in DMSO, 48 h, 27 °C
Description: as §1

[4] = tested on: Pseudomonas fluorescens; assay: Antibacterial well-diffusion method; format: cell-based; settings: 0.1 mL of compound in DMSO, 48 h, 27 °C
Description: as §1

[5] = tested on: Coniophora puteana (Cp); assay: Antifungal agar-plate method; format: cell-based; settings: for inhibition of growth at 0.0001 % / inhibition of growth at 0.001 % / inhibition of growth at 0.01 % / inhibition of growth at 0.1 %: Coniophora puteana, read-out: Antifungal activity (inhibition of mycelial growth)
Description: (§2) Fungal strains: Coriolus versicolor (Cv), Poria placenta (Pp), Coniophora puteana (Cp) and Gloeophyllum trabeum (Gt) were used as a test organism for the experimental determination of the antifungal activity of 1–11. The fungus were obtained from the collection of the Department of Wood Chemical Technology, Faculty of Forestry and Wood Technology, Poznań, University of Life Sciences, Poland. The fungal growth rates were measured in 90 mm-diameter plastic dishes using the agar-plate method, described by Ważny and Thorton. Five concentrations of gramine and its derivatives in the range of 0.1% to 0.00001% were studied. The compound was applied on the agar (2% agar and 5% malt-extract) prepared on the Petri dish and previously autoclaved. The combination of the compound and fungus was repeated three times. Given sample was centrally inoculated with a 5 mm diameter disc taken from the submargin of 5-day-old malt agar plates. The plates were incubated in darkness at 21 ± 2 °C and 70 ± 5% relative air humidity. The growth duration was determined by the total coverage of the reference plate. The radius of the area covered by the fungus compared with the reference agar plate was employed to calculate the effective doses, ED50, of preservative concentrations retarding the fungal growth rate by 50%.

[6] = tested on: Coriolus versicolor (Cv); assay: Antifungal agar-plate method; format: cell-based; settings: for inhibition of growth at 0.0001 % / inhibition of growth at 0.001 % / inhibition of growth at 0.01 % / inhibition of growth at 0.1 %: Trametes versicolor, read-out: Antifungal activity (inhibition of mycelial growth)
Description: as §2

[7] = tested on: Gloeophyllum trabeum (Gt); assay: Antifungal agar-plate method; format: cell-based; settings: for inhibition of growth at 0.0001 % / inhibition of growth at 0.001 % / inhibition of growth at 0.01 % / inhibition of growth at 0.1 %: Gloeophyllum trabeum, read-out: Antifungal activity (inhibition of mycelial growth)
Description: as §2

[8] = tested on: Poria placenta (Pp); assay: Antifungal agar-plate method; format: cell-based; settings: for inhibition of growth at 0.0001 % / inhibition of growth at 0.001 % / inhibition of growth at 0.01 % / inhibition of growth at 0.1 %: read-out: Antifungal activity (inhibition of mycelial growth)
Description: as §2

[9] = Ferrous ions (Fe2+) chelating activity (ferrozine); settings: 0.1 mg/mL, 10 min, room temperature
Description: Ferrous ions (Fe^2+) chelating activity was evaluated by inhibition of the formation of Fe^2+-ferrozine complex after incubation of the compounds tested with Fe^2+. The Fe^2+-chelating ability of compounds tested was determined by the absorbance of the ferrous ion-ferrozine complex at 562 nm. In brief, 0.1 mg/mL concentration of the compounds tested in 0.2 mL ethyl alcohol were added to a solution of 0.6 mM FeCl2 (0.05 mL). EDTA (ethylenediaminetetraacetic acid) was used as the standard EDTA chelating agent. The reaction was started by the addition of 5 mM ferrozine (0.05 mL) in ethyl alcohol and shaken vigorously immediately. The samples were stored for 10 min at room temperature (~22 °C). Following incubation, the absorbance (Abs) of the solutions was measured at 562 nm in a spectrophotometer. The percentage of inhibition of ferrozine—Fe^2+ complex formation was calculated using the equation: Fe^2+ chelating effect (%) = [1 − (Abs1/Abs0)] × 100% where Abs0 is the absorbance of the sample without the tested compound and Abs1 is the absorbance in the presence of the compound tested. Each sample was made in triplicate, and three independent experiments were performed.

Compound | Zone of Growth Inhibition [1] | Zone of Growth Inhibition [2] | Zone of Growth Inhibition [3] | Zone of Growth Inhibition [4] | inhibition of growth at 0.0001 % ([5]; concentration 0.0001%) | inhibition of growth at 0.001 % ([5]; concentration 0.001%) | inhibition of growth at 0.01 % ([5]; concentration 0.01%) | inhibition of growth at 0.1 % ([5]; concentration 0.1%) | inhibition of growth at 0.0001 % ([6]; concentration 0.0001%) | inhibition of growth at 0.001 % ([6]; concentration 0.001%) | inhibition of growth at 0.01 % ([6]; concentration 0.01%) | inhibition of growth at 0.1 % ([6]; concentration 0.1%) | inhibition of growth at 0.0001 % ([7]; concentration 0.0001%) | inhibition of growth at 0.001 % ([7]; concentration 0.001%) | inhibition of growth at 0.01 % ([7]; concentration 0.01%) | inhibition of growth at 0.1 % ([7]; concentration 0.1%) | inhibition of growth at 0.0001 % ([8]; concentration 0.0001%) | inhibition of growth at 0.001 % ([8]; concentration 0.001%) | inhibition of growth at 0.01 % ([8]; concentration 0.01%) | inhibition of growth at 0.1 % ([8]; concentration 0.1%) | other results
CCc1nc(C)cn1Cc1c[nH]c2ccccc12 [Compound 6, 3-((2-ethyl-4-methyl-1H-imidazol-1-yl)methyl)-1H-indole] | 2.4 mm | 3.5 mm | 6 mm | 2.3 mm | 40% | 37% | 49% | 100% | 19% | 19% | 44% | 100% | 13% | 9% | 27% | 100% | 4% | 0% | 41% | 100% | melting point: 186 to 189 °C
Clc1ncn(Cc2c[nH]c3ccccc23)c1Cl [Compound 7, 3-((4,5-dichloro-1H-imidazol-1-yl)methyl)-1H-indole] | 8.7 mm | 4.3 mm | 5 mm | 0 mm | 0% | 46% | 74% |  | 0% | 23% | 96% | > 90% | 28% | 51% | 91% | > 90% | 0% | 35% | 78% |  | Chelating activity [9]: no chelating activity
3-((2-phenyl-2,5-dihydro-1H-imidazol-1-yl)methyl)-1H-indole [Compound 8] | 3.7 mm | 5 mm | 8.6 mm | 0 mm |  |  |  |  |  |  |  |  |  |  |  |  |  |  |  |  | Chelating activity [9]: 40%; Antifungal activity (inhibition of mycelial growth) ([5]; concentration 0.0001%): 0%; Antifungal activity (inhibition of mycelial growth) ([5]; concentration 0.001%): 0%; Antifungal activity (inhibition of mycelial growth) ([5]; concentration 0.01%): 48%; Antifungal activity (inhibition of mycelial growth) ([5]; concentration 0.1%): 100%; Antifungal activity (inhibition of mycelial growth) ([6]; concentration 0.0001%): 7%; Antifungal activity (inhibition of mycelial growth) ([6]; concentration 0.001%): 13%; Antifungal activity (inhibition of mycelial growth) ([6]; concentration 0.01%): 41%; Antifungal activity (inhibition of mycelial growth) ([6]; concentration 0.1%): 100%; Antifungal activity (inhibition of mycelial growth) ([7]; concentration 0.0001%): 13%; Antifungal activity (inhibition of mycelial growth) ([7]; concentration 0.001%): 18%; Antifungal activity (inhibition of mycelial growth) ([7]; concentration 0.01%): 53%; Antifungal activity (inhibition of mycelial growth) ([7]; concentration 0.1%): 100%; Antifungal activity (inhibition of mycelial growth) ([8]; concentration 0.0001%): 0%; Antifungal activity (inhibition of mycelial growth) ([8]; concentration 0.001%): 17%; Antifungal activity (inhibition of mycelial growth) ([8]; concentration 0.01%): 45%; Antifungal activity (inhibition of mycelial growth) ([8]; concentration 0.1%): 100%
c1ccc2c(Cn3ccnc3)c[nH]c2c1 [Compound 2] | 3.3 mm | 4 mm | 21 mm | 14.7 mm | 0% | 0% | 41% | 100% | 0% | 19% | 33% | 100% | 20% | 20% | 40% | 100% | 0% | 20% | 47% | 100% | 
CC(C)c1nccn1Cc1c[nH]c2ccccc12 [Compound 5, 3-((2-isopropyl-1H-imidazol-1-yl)methyl)-1H-indole] | 1.8 mm | 3 mm | 3 mm | 0 mm | 13% | 14% | 26% | 100% | 13% | 12% | 43% | 100% | 12% | 16% | 17% | 100% | 1% | 6% | 21% | 100% | melting point: 183 to 185 °C
CN(C)Cc1c[nH]c2ccccc12 [Compound 1, gramine, reference compound] | 0 mm | 0 mm | 0 mm | 13 mm | 41% | 40% | 51% | 100% | 18% | 22% | 35% | 100% | 12% | 12% | 17% | 100% | 14% | 25% | 40% | 100% | 
CCc1nccn1Cc1c[nH]c2ccccc12 [Compound 4, 3-((2-ethyl-1H-imidazol-1-yl)methyl)-1H-indole] | 4.3 mm | 3.8 mm | 8.8 mm | 3 mm | 13% | 15% | 37% | 100% | 6% | 13% | 43% | 100% | 8% | 11% | 30% | 100% | 16% | 18% | 32% | 100% | melting point: 183 to 186 °C
